# Measurements taken from patent US20230183303A1, “Therapeutic Potential of Peptides from the "Netrin-Like" Domain of the FRZB Protein” (Université de Lorraine, priority 2020, published 2023).
# “Also recorded” adds a separate entry of the source.
# Columns and labels:
# ATDC5 micromasses [1] = experiment: qRT-PCR relative expression of genes of interest in ATDC5 micromass culture (chondrogenesis); format: cell-based, mouse; conditions: for MMP3 expression / YAP/TAZ target genes (CTGF) expression / articular chondrocyte extracellular matrix genes (type II collagen and aggrecan) expression: 300 ng/ml, differentiated 14 days with ITS, D14 vs CTL
# Experimental: (§1) Mouse chondrogenic ATDC5 cells (cartilage-specific chondrogenic strain) were cultured until confluent in maintenance medium containing 1:1 Dulbecco's modified Eagle's medium (DMEM): Ham's F-12 mix (Gibco) supplemented with 1% antibiotic (AB, Penicillin-Streptomycin, Gibco), 5% fetal bovine serum (FBS) (Gibco) and enriched with […] human transferrin (Sigma) and 30 nM sodium selenite (Sigma). Cells were trypsinized, washed and resuspended at 2.10^7 cells/mL in a chondrogenic medium made of maintenance medium enriched by 1× of ITS premix (resulting in 10 μg/mL insulin, 10 μg/mL human transferrin and 30 nM sodium selenite) (Life technologies). One droplet of cell suspension (10 μL) was placed at the center of each well of a 24-well plate. Cells were allowed to adhere for 2 h at 37° C., followed by addition of 500 μL chondrogenic medium supplemented. […] After 14 days, induction of hypertrophic differentiation and mineralization was induced by the mineralization medium made of α-MEM medium (Gibco) containing 1% AB, 5% FBS, 5 μg/ml human transferrin, 1× of ITS premix, 50 μg/ml ascorbic acid-2-phosphate (AA) (Sigma) and 10 mM β-glycerophosphate (BGP) (Sigma). […] Micromasses were collected at time points 1, 7, 14 21 and 28 days. Each time point was processed in three technical replicates. The medium was changed every other day. […] The genes of interest were articular chondrocyte markers (aggrecan, type 2 collagen (col2a1)), YAP/TAZ target genes (ctgf, ankrd) and pro-catabolic enzymes involved in the pathophysiology of OA (mmp3, mmp13).
# (§2) Total RNA was isolated using the Nucleospin RNA II kit (Macherey-Nagel) and reverse-transcribed using the MMLV reverse transcriptase (Thermo Fisher Scientific) following the manufacturers' instructions. The iTaq SYBR green qPCR master mix (BioRad) was used to assess the mRNA expression of target genes of interest. Primer sequences can be provided upon request. The following PCR conditions were used: 1 minute at 95° C., 40 cycles of 15 sec of denaturation at 95° C., followed by 1 minute of annealing-elongation at 60° C. Melting curve analysis was performed to determine the amplification of the specific product. Results were expressed using the comparative threshold method and were normalized to housekeeping gene PPIA (Peptidylprolyl Isomerase A) mRNA level for ATDC5 cells and MACs, or normalized to housekeeping gene S29 (ribosomal protein S29) mRNA level for MC3T3-E1 cells. The Via7 real-time PCR system (Thermo Fisher Scientific) was used for qRT-PCR measurements.
# ATDC5 cells were cultured as micromasses and differentiated during 14 days using ITS as mentioned previously. […] RNA was isolated and qPCR were performed for different target genes, i.e. type II collagen and aggrecan (articular chondrocyte extracellular matrix), CTGF (YAP/TAZ target genes, indicators of the pathway activity) and MMP3 (cartilage degrading enzyme increased during osteoarthritis) (FIG. 15). Alcian blue staining was performed on the micromasses cultures, and biochemical quantitation was performed as previously described (FIG. 16).
# ATDC5 cells were cultured as micromasses and differentiated during 14 days using ITS as mentioned previously. […] RNA was isolated and qPCR were performed for different target genes, i.e. type II collagen and aggrecan (articular chondrocyte extracellular matrix), CTGF (YAP/TAZ target gene, indicator of the pathway activity) and MMP3 (cartilage degrading enzyme increased during osteoarthritis) (FIG. 17). Alcian blue staining was performed on the micromasses cultures, and biochemical quantitation was performed as previously described (FIG. 18).
# ATDC5 micromasses [2] = experiment: Glycosaminoglycan/proteoglycan quantification (Alcian blue staining) in ATDC5 micromasses; format: cell-based, mouse; conditions: for proteoglycans deposition in the extracellular matrix (Alcian blue, absorbance 650 nm): 300 ng/ml, 14 days, vs control cells
# Experimental: as §1
# Micromasses were washed with PBS and fixed with 95% ice-cold ethanol for 30 min at 4° C. for staining. After washing with distilled water, micromasses were stained with Alcian Blue (0.1% Alcian Blue 8GX, (Sigma)), washed three times with distilled water to remove unbound staining and air-dried.
# Wnt/β-catenin pathway = experiment: Western blot of Wnt/β-catenin pathway activation in ATDC5 micromasses; format: cell-based, mouse; conditions: 300 ng/mL; day 21 and 28
# Experimental: (§3) Mouse chondrogenic ATDC5 cells (cartilage-specific chondrogenic strain) were cultured until confluent in maintenance medium containing 1:1 Dulbecco's modified Eagle's medium (DMEM): Ham's F-12 mix (Gibco) supplemented with 1% antibiotic (AB, Penicillin-Streptomycin, Gibco), 5% fetal bovine serum (FBS) (Gibco) and enriched with […] human transferrin (Sigma) and 30 nM sodium selenite (Sigma). Cells were trypsinized, washed and resuspended at 2.10^7 cells/mL in a chondrogenic medium made of maintenance medium enriched by 1× of ITS premix (resulting in 10 μg/mL insulin, 10 μg/mL human transferrin and 30 nM sodium selenite) (Life technologies). One droplet of cell suspension (10 μL) was placed at the center of each well of a 24-well plate. Cells were allowed to adhere for 2 h at 37° C., followed by addition of 500 μL chondrogenic medium supplemented. […] After 14 days, induction of hypertrophic differentiation and mineralization was induced by the mineralization medium made of α-MEM medium (Gibco) containing 1% AB, 5% FBS, 5 μg/ml human transferrin, 1× of ITS premix, 50 μg/ml ascorbic acid-2-phosphate (AA) (Sigma) and 10 mM β-glycerophosphate (BGP) (Sigma). […] Micromasses were collected at time points 1, 7, 14 21 and 28 days. Each time point was processed in three technical replicates. The medium was changed every other day. […]
# CamKII pathway = experiment: Western blot of CamKII pathway activation in ATDC5 micromasses; format: cell-based, mouse; conditions: 300 ng/mL; day 21 and 28
# Experimental: as §3
# [3] = tested on: 7×TCF/LEF response elements (Super 8×TOPFlash reporter); experiment: Promoter activation assay, Super 8×TOPFlash luciferase reporter in ATDC5 cells stimulated with Wnt3a; format: cell-based, mouse; conditions: peptide at 300 ng/ml; 10 or 100 ng/mL recombinant Wnt3a; 24 h
# Experimental: Results were normalized by-cotransfecting each of the above plasmid with the tyrosine kinase-renilla luciferase plasmid (Promega). Transfections were carried out using the Dharmafect kb transfection reagent (Fisher Scientific). Briefly, reporter plasmids and transfection reagent were diluted in serum-free medium, and then the diluted Dharmafect kb was added to the plasmids for an incubation time of 10 minutes at room temperature. During that time, cells were rinsed with PBS and were placed in fresh maintenance medium. When incubation was over, the mixture of transfection reagent-plasmids was dispensed in each well. Stimulations (with Wnt3a and/or PEP16 and/or PEP16bis) were carried out the next day.
# [4] = tested on: mouse articular chondrocytes; experiment: qRT-PCR relative expression of genes of interest in mouse articular chondrocytes; format: cell-based; conditions: 300 ng/mL; 12 h of stimulation
# Experimental: Mouse articular chondrocyte (MACs) were isolated from femoral heads by enzymatic digestion of whole femoral head caps. Samples were washed three times in 1% AB/phosphate buffered saline (PBS) and incubated with 2 mg/ml pronase (Roche)/DMEM-F12 at 37° C. for 1 h at slow rotation 100 rpm followed by a 3 h incubation with 1.5 mg/ml collagenase B (Roche)/DMEM-F12 at 37° C. Cells were seeded at 1×10^6 cells/[…], and cultured for 7 to 14 days in growth medium DMEM-F12, containing 1% AB (Gibco), 10% FBS (Gibco) and 5% L-glutamine (Thermoscientific). Passage 1 cells were utilized for the experiments. The culture supernatants were then harvested in order to perform MMP13 enzymatic activity assay. The evaluation of the expression of genes of interest included articular chondrocyte markers (aggrecan, type 2 collagen (col2a1)), YAP/TAZ target genes (ankrd) and pro-catabolic enzyme involved in the pathophysiology of OA (mmp3).
# as §2
# mouse model of OA = mouse model of OA (Zhang et al., 2020); cited from earlier work
# MC3T3-E1 cells = experiment: Quantification of mineralization (Alizarin Red) in MC3T3-E1 cells; format: cell-based, mouse; conditions: PEP12 at 300 and 1000 ng/ml; 21 days; absorbance 405 nm
# Experimental: Each time point was processed in three technical replicates. The medium was changed every two days.
# Cells were washed with PBS and fixed with 95% ice-cold ethanol for 30 min at 4° C. for staining. After washing with distilled water, cells were stained with Alizarin Red staining (1% Alizarin Red S (Sigma)), washed three times with distilled water to remove unbound staining and air-dried. Quantification of the staining was performed by dissolving the mineral content in 800 μl of 10% acetic acid for 30 minutes. Then, the wells were scraped, the content of each well was harvested in a separate tube and vortexed for 30 seconds. Each tube was heated at 85° C. for 10 minutes, then put on ice for 5 minutes. Finally, tubes were centriguated at 13000 rpm for 15 minutes, the liquid phase was harvested and mixed with 100 μl of 10% ammonium hydroxide. Absorbance was measured at 405 nm with a spectrophotometer (Varioskan Flash, Thermo Fisher Scientific).
# The mineralization level was evaluated by a biochemical assay as previously described after 21 days of differentiation culture. Results are representative of 3 experiments.
# alkaline phosphatase = conditions: 300 ng/ml, 1000 ng/ml; day 1 and day 21; vs CTL
# Experimental: MC3T3-E1 cells were differentiated during 21 days as mentioned previously. […] Treated cells were compared to cells without any peptide stimulation (CTL).
# We also assessed the specific alkaline phosphatase activity (μmol de para-nitrophenol/min/mg of protein). To that goal, we lysed the cells using 300 μL of a buffer containing 0.2 M Tris-Base, 1.6 mM MgCl2 pH 8.1 and 1% Triton X-100. Samples were then placed into tubes and put on ice for 30 min. During this time, we alternated periods of 30 sec vortex and 5 min on ice. Then, samples were sonicated, and centrifugated for 15 min at 13 000 g, 4° C. Supernatant was collected, and total protein concentration was evaluated using bicinchoninic acid assay.
# Alkaline phosphatase activity was measured by placing the harvested supernatants in para-nitrophenyl phosphate (pNPP) solution. The alkaline phosphatase will cleave this substrate and generate para-nitrophenol (pNP).
# A solution of 4 mg/mL of pNPP is prepared in buffer A (0.1 M glycine pH 10.5, 0.11% (m/v) Zinc acetate and 0.011% magnesium chloride (m/v)). […]
# Absorbance is read at 410 nm on a Varioskan Flash apparatus. Alkaline phosphatase activity is calculated based on the standard curve (equation A410=a×quantity(ρNP)+b) with the following formula: activity=((A(410 nm)−b)×reaction volume)/(a×sample volume×reaction time)
# [5] = 300 ng/mL, day 1, 21, 28, vs non-treated control
substance,measurement,setting,value
"DRAGKKVKRWDMKARH (PEP16bis) [mutant of PEP16, L in position 3 and 14 changed to A]","expression of Ctgf, a target gene of the Hippo/YAP/TAZ pathway",ATDC5 micromasses [1]; [5],efficiently reduced the expression
same,relative expression level of aggrecan,ATDC5 micromasses [1]; [5],favoured the induction of the expression
same,relative expression level of col2a1 (type 2 collagen),ATDC5 micromasses [1]; [5],favoured the induction of the expression
same,relative expression level of mmp3,ATDC5 micromasses [1]; [5],efficiently reduced the expression
same,relative expression level of mmp13,ATDC5 micromasses [1]; [5],efficiently reduced the expression
same,glycosaminoglycans quantification (accumulation in the extracellular matrix),"ATDC5 micromasses [2]; 300 ng/mL, Alcian blue at day 28, absorbance 650 nm",significantly increased the accumulation of glycosaminoglycans
same,Wnt/β-catenin pathway activation (active protein form over total protein form),Wnt/β-catenin pathway,reduced in the activation of the Wnt/β-catenin pathway
same,CamKII pathway activation (P-CamKII over total),CamKII pathway,increased the activation of the CamKII pathway
same,activity of the canonical Wnt pathway in the Super TOPFlash luciferase reporter system (Firefly/renilla ratio),[3],very similar properties (biological activity) to the initial sequence PEP16; also recorded: significantly reduce the activity
same,"expression of Ankrd, a target gene of the Hippo/YAP/TAZ pathway",[4],capable of reducing the expression
DRIGKKVKRWDMKIRH (PEP i) [PEP16 where L in position 3 and 14 were changed to an Isoleucine],MMP3 expression,ATDC5 micromasses [1],significant decrease
same,YAP/TAZ target genes (CTGF) expression,ATDC5 micromasses [1],significant decrease
same,articular chondrocyte extracellular matrix genes (type II collagen and aggrecan) expression,ATDC5 micromasses [1],significant increase
same,"proteoglycans deposition in the extracellular matrix (Alcian blue, absorbance 650 nm)",ATDC5 micromasses [2],significantly increase the proteoglycans deposition
DRSGKKVKRWDMKSRH (PEP s) [PEP16 where L in position 3 and 14 were changed to a Serine],MMP3 expression,ATDC5 micromasses [1],significant decrease
same,YAP/TAZ target genes (CTGF) expression,ATDC5 micromasses [1],significant decrease
same,articular chondrocyte extracellular matrix genes (type II collagen and aggrecan) expression,ATDC5 micromasses [1],significant increase
same,"proteoglycans deposition in the extracellular matrix (Alcian blue, absorbance 650 nm)",ATDC5 micromasses [2],significantly increase the proteoglycans deposition
Verteporfin,cartilage homeostasis,mouse model of OA,allowed preserving the cartilage homeostasis
ATQKTYFRNNYN (PEP12),extracellular matrix mineralization (biochemical quantitation),MC3T3-E1 cells,not able to increase extracellular matrix mineralization
same,specific alkaline phosphatase activity,alkaline phosphatase,not able to increase the alkaline phosphatase activity
